Molecules are shown by their SMILES.

This is an account of results in patent publication US8501775B2, “Anthelmintics for preventing parasitic infections in humans and animals” (SALTIGO GmbH, priority 2000, dated 2013).

The test system of one data set is Schistosoma mansoni cercariae. Nature of the data set: Activity against Schistosoma mansoni cercariae (survival/mobility observed with a stereomagnifier). The following applies: 500 μl/l final concentration of the active compounds; test period of 120 minutes. More on the design: key: no effect during the entire test period of 120 minutes; 1: weak effect (the cercariae have a strongly reduced mobility); 2: good effect (the cercariae are only slightly mobile and bent); 3: full effect (the cercariae are completely immobile). As to the method: Activity Against Schistosoma mansoni Cercariae
Snails (Biomphalaria glabrata) were infected by incubating each of them with 8 miracidia in 10 ml of water overnight. About 6 to 9 weeks after the infection, cercariae were obtained by irradiating the snails, which had been kept in darkness, with light, followed by collection of the swarming cercariae within 2 hours.
Such an amount of cercariae-containing water (1 or 2 ml, see below) was added to the test batches that each batch contained about 100 to 150 cercariae.
9 ml of aquarium water was then added, and the batch was shaken vigorously. After (delayed) addition of 1 ml of cercariae suspension, survival of the cercariae was in each case observed immediately using a stereomagnifier.
As to `CCC(C)OC(=O)N1CCCCC1CCO` (stereo not shown), the Assessment is reported as 2.

Molecule `CC(C)(C)OC(=O)N1CCCCC1CCO` (stereo not shown) gave an Assessment of 3.

Molecule `CCCCOC(=O)N1CCCCC1CCO` (stereo not shown) displayed an Assessment of 3.

On to `CCCCOC(=O)N(C)CCCO`, for which the Assessment stood at 1.

`CCC(C)COC(=O)N(C)CCCO` (stereo not shown): the Assessment is 1.

Take `C=CCOC(=O)N1CCCCC1CCO` (stereo not shown): the Assessment worked out at 3.

`C=CCCOC(=O)N(C)CCCO` returned an Assessment of 2.

Consider `CN(CCCO)C(=O)OC1CCCCC1`, for which the Assessment was 1.

A further data set deals with cercariae of Schistosoma mansoni.
Experiment: not given
The note with it: literature statement; cited from earlier work.
As to `CCN(CC)C(=O)c1cccc(C)c1` [DEET, N,N-Diethyl-m-toluamide], the “effect on cercariae of Schistosoma mansoni” value is “acts against cercariae”.

For `Oc1c(Cl)cc(Cl)c(Cl)c1Cc1c(O)c(Cl)cc(Cl)c1Cl` [hexachlorophene], the “effect on cercariae of Schistosoma mansoni” value was “lethal effect”.

The next data set has the same test system.
Experiment: not given
The following applies: topical, monkeys; literature statement; cited from earlier work.
For the molecule `O=C(Nc1ccc([N+](=O)[O-])cc1Cl)c1cc(Cl)ccc1O` [Niclosamide], the “action against the penetration of cercariae” value was “acts against the penetration of cercariae”.

Test system in a further data set: not given
Experiment: not given
The following applies: literature / regulatory statement; cited from earlier work.
Turning to `Oc1c(Cl)cc(Cl)c(Cl)c1Cc1c(O)c(Cl)cc(Cl)c1Cl` [hexachlorophene], the toxicity / hazard entry is “toxic on contact with the skin and when swallowed”.

As for `O=C(Nc1ccc([N+](=O)[O-])cc1Cl)c1cc(Cl)ccc1O` [Niclosamide], the toxicity / hazard result is on record as “may possibly cause inheritable genetic damage”.
